Legend:
[1] = tested on: rabbit artery that was pre-constricted; assay: vasoactivity in pre-constricted rabbit artery (vascular rings); details: compared with BNP
Text: FIG. 13 is a line graph plotting vasoactivity measurements obtained from rabbit vascular rings treated with either BNP, ASBNP, or ASBNP.1 at the indicated concentrations.
(§1) In some embodiments, a polypeptide provide herein can lack the ability to stimulate production of cGMP in human umbilical vascular endothelial cells (HUVEC). Intracellular cGMP production can be assayed using, for example, the BIOTRACK cGMP enzyme immunoassay kit (Amersham Pharmacia Biotech). In other embodiments, a polypeptide provide herein can lack vasoactivity. Vasoactivity can be assessed by determining responsitivity of a blood vessel (e.g., a carotid artery in an organ chamber) to the polypeptide.
(§2) The following experiments were performed to compare the activities of BNP, ASBNP, and ASBNP.1 polypeptides. Briefly, synthesized forms of BNP, ASBNP, and ASBNP.1 were administered to HUVECs and HASMCs, and cGMP levels were determined.

[2] = tested on: paced dogs; assay: 90 minute infusion of ASBNP.1 (100 pmol/kg/minute) in paced dogs; type: in vivo, dog; details: 100 pmol/kg/minute for 90 minutes
Method: FIG. 34 is a graph plotting urinary sodium excretion (microEq/min) in paced dogs at the indicated times after beginning administration of ASBNP.1 polypeptide (100 pmol/kg/minute) for 90 minutes. BL=baseline; 30 min=30 minutes of ASBNP.1 polypeptide administration; 60 min=60 minutes of ASBNP.1 polypeptide administration; 90 min=90 minutes of ASBNP.1 polypeptide administration; Washout=after washout period at stop of infusion; Rec 1=30 minutes after stopping infusion; and Rec 2=60 minutes after stopping infusion.
In another experiment, an ASBNP.1 polypeptide preparation was administered to dogs (100 pmol/kg/minute for 90 minutes). Urinary sodium excretion, urine flow, mean arterial blood pressure, renal blood flow, pulmonary capillary wedge pressure, and cardiac output were measured after 30, 60, and 90 minutes of administering the ASBNP.1 polypeptide. Administration of ASBNP.1 polypeptide was followed by a washout period of 30 minutes. The washout was performed by administering normal saline. Urinary sodium excretion, urine flow, mean arterial blood pressure, renal blood flow, pulmonary capillary wedge pressure, and cardiac output were measured again after the washout period, and after each of two recovery periods at 60 minutes (Rec 1) and 90 minutes (Rec 2) after administration of the ASBNP.1 polypeptide.

[3] = tested on: HASMCs; assay: cGMP levels in HASMCs; type: cell-based
Method: FIG. 12 is a bar graph plotting cGMP levels in HASMCS treated with BNP, ASBNP, or ASBNP.1 at the indicated concentrations. OX represents oxidized, and non-OX represents non-oxidized.
as §2

[4] = tested on: HUVECs; assay: cGMP levels in HUVECs; type: cell-based, human
Text: FIG. 11 is a bar graph plotting cGMP levels in HUVECS treated with BNP, ASBNP, or ASBNP.1 at the indicated concentrations. OX represents oxidized, and non-OX represents non-oxidized.
as §1, §2

[5] = tested on: normal dogs; assay: intravenous infusion of ASBNP.1 in normal dogs; type: in vivo, dog
Method: A truncated form of ASBNP that terminates prior to the cysteine and contains a 13 amino acid C-terminus tail was designed and synthesized. This polypeptide is referred to as an ASBNP.1 polypeptide (FIG. 1). The biological effects of intravenous ABNP.1 infusion were tested in normal dogs. Briefly, six normal dogs were infused with 2, 10, and 100 pmol of an ASBNP.1 polypeptide preparation, i.e., each dog received consecutive infusions of 2, 10, and 100 pmol of an ASBNP.1 polypeptide preparation. Urine flow, urinary sodium excretion, distal fractional tubular sodium reabsorption, proximal tubular fractional sodium reabsorption, mean arterial blood pressure, plasma cGMP levels, glomerular filtration rate, renal blood flow, and plasma renin levels were measured as described elsewhere (Chen et al., Am. J. Physiol. Regul. Integr. Comp. Physiol., 288: R1093-R1097 (2005) and Haber et al., J. Clin. Endocrinol. Metab., 29:1349-1355 (2005)). […] Systemic administration of the ASBNP.1 polypeptide had no effect on glomerular filtration rate, renal blood flow, or mean arterial blood pressure (FIGS. 8-10).

[6] = tested on: paced dog model of congestive heart failure (CHF); assay: intravenous infusion in paced dog model of congestive heart failure (CHF), consecutive doses; type: in vivo; details: paced CHF dogs
Method: The biological effects of intravenous ABNP.1 infusion were tested in a paced dog model of congestive heart failure (CHF). Briefly, 10 dogs underwent surgical implantation of a programmable cardiac pacemaker (Medtronic, Minneapolis, Minn.). After postoperative recovery, the animals received 11 days of rapid ventricular pacing (240 beats/minute), which can induce overt congestive heart failure CHF as described elsewhere (Chen et al., Circulation, 100:2443-2448 (1999)). The dogs were intravenously infused with 2, 10, and 100 pmol of an ASBNP.1 polypeptide preparation, i.e., each dog received consecutive infusions of 2, 10, and 100 pmol of an ASBNP.1 polypeptide preparation.
Acute hemodynamic studies were performed at the time of infusion, and comparisons were made between groups and among dogs at baseline and during each infusion. Urine flow, urinary sodium excretion, distal fractional tubular sodium reabsorption, proximal tubular fractional sodium reabsorption, plasma cGMP levels, rennin levels, glomerular filtration rate, renal blood flow, mean arterial blood pressure, urinary cGMP excretion, urinary ANP excretion, urinary BNP excretion, plasma BNP levels, plasma ANP levels, pulmonary capillary wedge pressure, cardiac output, systemic vascular resistance, angiotensin II levels, and aldosterone levels were measured as described elsewhere (Chen et al., Am. J. Physiol. Regul. Integr. Comp. Physiol., 288: R1093-R1097 (2005) and Haber et al., J. Clin. Endocrinol. Metab., 29:1349-1355 (2005)). […] There was no effect on distal tubular fractional sodium reabsorption, proximal tubular fractional sodium reabsorption renal blood flow, plasma cGMP, mean arterial blood pressure, plasma BNP, plasma ANP, pulmonary capillary wedge pressure, or angiotensin II levels (FIGS. 17, 18, 19, 22, 23, 28, 29, and 32).

[7] = normal dogs, 2, 10, 100 pmol i.v.
[8] = normal dogs, consecutive i.v. infusions of 2, 10, 100 pmol
[9] = consecutive i.v. infusions of 2, 10, 100 pmol

**Q.** What does the source list for “ASBNP.1: truncated form of ASBNP that terminates prior to the cysteine, 13 amino acid C-terminus tail; 42 amino acid residues (SEQ ID NO:1) (SPKMVQGSGCFGRKMDRISSSSGLGCKGKHPLPPRPPSPIPV)”?
**A.** vasoactivity on pre-constricted rabbit artery [1]: no effect; PAP (pulmonary arterial pressure) [2]: without a change; RAP (right arterial pressure) [2]: without a change; cardiac output [2]: No significant effect; mean arterial blood pressure [2]: No significant effect; renal blood flow [2]: No significant effect; urinary sodium excretion [2]: increase; urine flow [2]: increase; pulmonary capillary wedge pressure ([2]; 60 minutes after administration): decrease; cGMP levels in HASMCs [3]: no effect; cGMP levels in HUVECs [4]: no effect; distal and proximal tubular fractional sodium reabsorption [5, 7]: targeted distal tubules; glomerular filtration rate [5, 7]: no effect; mean arterial blood pressure [5, 7]: no effect; renal blood flow [5, 7]: no effect; urinary sodium excretion (natriuretic effect) [5, 8]: diuretic and natriuretic effects; urine flow (diuretic effect) [5, 8]: diuretic and natriuretic effects; plasma cGMP ([5]; normal dogs, super high is 100 pmol): elevated at the super high dose; plasma renin ([5]; normal dogs, two higher doses 10 and 100 pmol): trend towards a decreased renin at the two higher doses; aldosterone [6]: increased from the administration of the low level of polypeptide and continued to increase throughout the remainder of the experiment; angiotensin II levels [6]: no effect; cardiac output [6]: decreased from the administration of the high level of polypeptide and remained decrease throughout the remainder of the experiment; distal tubular fractional sodium reabsorption [6]: no effect; mean arterial blood pressure [6]: no effect; plasma ANP [6]: no effect; plasma BNP [6]: no effect; plasma cGMP [6]: no effect; proximal tubular fractional sodium reabsorption [6]: no effect; pulmonary capillary wedge pressure [6]: no effect; renal blood flow [6]: no effect; renin [6]: increased throughout the washout period; systemic vascular resistance [6]: increased during the high, super high, washout, and recovery 1 phases; urinary sodium excretion (natriuretic effect) [6, 9]: diuretic but not natriuretic effects; urine flow (diuretic effect) [6, 9]: diuretic but not natriuretic effects; glomerular filtration rate ([6]; high is 10 pmol): increased glomerular filtration rate at the high level; urinary cGMP excretion ([6]; high is 10 pmol, super high is 100 pmol): increased urinary cGMP excretion at the high and super high levels; urinary ANP excretion ([6]; high level (10 pmol)): increased urinary ANP excretion; urinary BNP excretion ([6]; super high level (100 pmol)): increased urinary BNP excretion

**Q.** What does the source list for “ASBNP: variant form of BNP generated by alternative splicing, 60 amino acid residues in length (SEQ ID NO:4) (SPKMVQGSGCFGRKMDRISSSSGLGCKGKHPLPPRPPSPIPVCDTVRVTLGFVVSGNHTL) [reference compound]”?
**A.** vasoactivity on pre-constricted rabbit artery [1]: no effect; cGMP levels in HASMCs [3]: minimal effects; cGMP levels in HUVECs [4]: minimal effects
